By Ki is commonly meant the dissociation constant of the complex between target and ligand, obtained from inhibition or displacement. Lower therefore signals higher affinity.

The source of these data is patent US20020146741A1, “Processes for receptpor screening” (priority 2000, published 2002).

In test [1] the target is T1, GR (Homo sapiens, UniProt P04150).
T1 sequence (P04150 1-777): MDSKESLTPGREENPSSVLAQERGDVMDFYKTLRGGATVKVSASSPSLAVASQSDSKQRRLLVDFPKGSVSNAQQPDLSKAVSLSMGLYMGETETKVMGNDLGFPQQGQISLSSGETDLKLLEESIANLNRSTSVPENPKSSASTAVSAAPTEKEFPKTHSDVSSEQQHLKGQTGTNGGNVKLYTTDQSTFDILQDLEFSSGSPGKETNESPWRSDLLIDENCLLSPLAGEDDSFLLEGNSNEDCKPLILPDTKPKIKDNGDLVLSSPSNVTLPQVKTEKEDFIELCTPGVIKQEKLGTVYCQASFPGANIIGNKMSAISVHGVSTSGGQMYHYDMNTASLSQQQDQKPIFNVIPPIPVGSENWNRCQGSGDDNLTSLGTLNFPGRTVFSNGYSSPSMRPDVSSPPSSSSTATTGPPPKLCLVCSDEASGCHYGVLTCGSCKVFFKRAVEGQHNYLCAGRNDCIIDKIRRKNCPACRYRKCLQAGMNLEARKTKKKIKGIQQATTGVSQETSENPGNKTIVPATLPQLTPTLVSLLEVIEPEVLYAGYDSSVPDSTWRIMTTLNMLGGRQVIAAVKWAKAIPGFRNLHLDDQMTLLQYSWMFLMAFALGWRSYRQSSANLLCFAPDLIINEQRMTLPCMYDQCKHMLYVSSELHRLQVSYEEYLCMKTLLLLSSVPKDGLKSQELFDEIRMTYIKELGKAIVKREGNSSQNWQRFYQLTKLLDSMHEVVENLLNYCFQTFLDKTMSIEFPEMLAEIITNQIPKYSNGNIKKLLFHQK
The experiment in a line: FP-based competitive ligand binding assay. More on the design: GR was produced as a full length protein in insect cells and partially purified using ion exchange chromatography; made in house; host or cells: insect cells (baculovirus). As to conditions: for Ki: GR 4 nM, fluorescein-dexamethasone probe, 1-hour incubation at room temperature; for RBA: relative binding affinity, dexamethasone = 100. As to the method: FIG. 3A and B are graphs showing FP-based competition assays with recombinant GR (A) and PR-LBD (B). Serial dilutions of test steroids were prepared. […] Final incubation conditions were similar to those described in FIG. 3. The final concentration of GR used was 4 nM, and for PR-LBD it was 8 nM. After a 1-hour incubation at room temperature, the fluorescence polarization of each well was read, using wells lacking fluor as blanks.
The other criteria used for validating a fluorescent steroid conjugate is the ability of known receptor ligands to compete with the fluor for binding to the receptor.

Test [2] concerns the target T1, GR. The following applies: literature RBA, dexamethasone = 100; cited from earlier work.

Compound `CC1(C)O[C@@H]2C[C@H]3[C@@H]4CCC5=CC(=O)C=C[C@]5(C)[C@@]4(F)[C@@H](O)C[C@]3(C)[C@]2(C(=O)CO)O1` [Triamcinolone acetonide] returned a Ki at GR [1] of 0.9 nM.

At GR [1], `CC(=O)OCC(=O)[C@@]12OC3(CCCC3)O[C@@H]1C[C@H]1[C@@H]3CCC4=CC(=O)C=C[C@]4(C)[C@@]3(F)[C@@H](O)C[C@@]12C` [Amcinonide] came in with a Ki of 1.9 nM and an RBA of 40.

Turning to `CC(=O)OCC(=O)[C@@]12OC(C)(C)O[C@@H]1C[C@H]1[C@@H]3C[C@H](F)C4=CC(=O)C=C[C@]4(C)[C@@]3(F)[C@@H](O)C[C@@]12C` [Fluocinonide], on GR [1], the Ki is 4.4 nM and the RBA came out at 17.

For `CC1(C)O[C@@H]2C[C@H]3[C@@H]4C[C@H](F)C5=CC(=O)C=C[C@]5(C)[C@H]4[C@@H](O)C[C@]3(C)[C@]2(C(=O)CO)O1` [Flunisolide], the “Literature Value” on GR [2] is 100. Besides, on GR [1], the Ki turned out to be 1 nM and the RBA is on record as 73.

On to `C[C@]12CCC(=O)C=C1CC[C@@H]1[C@@H]2[C@@H](O)C[C@@]2(C)[C@H]1CC[C@]2(O)C(=O)CO` [Cortisol], for which the “Literature Value” at GR [2] is 33. For the same compound, the RBA on GR [1] is 24.
